According to BigSolDB 2.1:

Conditions: in ethylbenzene

CCCCCCCCCCCCCCCCCCCCCCC
Conditions | solubility (mole fraction)
271.13 K | 0.00366
280.09 K | 0.0136
285.88 K | 0.0295
288.62 K | 0.0415
292.61 K | 0.0698
295.02 K | 0.094
297.34 K | 0.124
298.77 K | 0.147
300.52 K | 0.173
300.9 K | 0.184

CCCCCCCCCCCCCCCCCCCC
Conditions | solubility (mole fraction)
266.52 K | 0.00955
270.33 K | 0.0149
272.73 K | 0.0195
275.75 K | 0.0265
278.21 K | 0.0364
281.94 K | 0.0536
282.8 K | 0.0614
284.97 K | 0.0791
286.15 K | 0.0904
287.19 K | 0.104
288.25 K | 0.116
289.67 K | 0.136
290.53 K | 0.151
291.27 K | 0.164
292.34 K | 0.179
292.97 K | 0.191
293.9 K | 0.204

CCCCCCCCCCCCCCCCCCCCC
Conditions | solubility (mole fraction)
262.5 K | 0.0047
268.03 K | 0.01
275.53 K | 0.026
278.56 K | 0.0366
281.9 K | 0.0549
284.95 K | 0.0739
286.6 K | 0.095
288.45 K | 0.115
290 K | 0.14
291.15 K | 0.164
293.16 K | 0.201
294.57 K | 0.235
295.72 K | 0.263

CCCCCCCCCCCCCCCCCCCCCC
Conditions | solubility (mole fraction)
268.67 K | 0.00443
274.22 K | 0.00854
277.47 K | 0.0123
281.39 K | 0.0202
284.43 K | 0.0294
286.56 K | 0.0381
289.51 K | 0.0539
291.7 K | 0.0702
293.53 K | 0.0865
295.46 K | 0.107
296.91 K | 0.127
297.87 K | 0.143
298.81 K | 0.256
299.86 K | 0.171
300.54 K | 0.186
301.25 K | 0.198
302.03 K | 0.213
302.44 K | 0.226

CCCCCCCCCCCCCCCCCCCCCCCC
Conditions | solubility (mole fraction)
272.02 K | 0.00269
279.76 K | 0.00689
285.62 K | 0.0142
289.1 K | 0.0224
292.74 K | 0.0346
296 K | 0.0511
299.02 K | 0.0732
301.52 K | 0.0997
303.08 K | 0.117
304.88 K | 0.144
306.15 K | 0.163
